# Patent US7014858B2, “Use methods of treating acne and telangiectasia” (CollaGenex Pharmaceuticals, Inc., priority 2001, dated 2006)
# Counter-ions that a name gives are not always drawn.
# Experiments:
# moderate facial acne = test: Clinical study of doxycycline hyclate 20 mg tablets twice daily in moderate acne: lesion counts; assay type: in vivo, human; settings: 20 mg tablets twice a day
# Experimental: Effects of Doxycycline Hyclate 20 mg (Dermastat) Tablets Administered Twice Daily for the Treatment of Moderate Acne
# • Multi-center, randomized double-blind, placebo-controlled; • Sixty patients enrolled (30 doxycycline and 30 placebo); • Six month duration of the study. • Patients received medication twice daily, approximately 12 hours apart (placebo and drug are identical in appearance.) Inclusion Criteria: • Healthy post-pubescent males and females (age ≧18) with moderate facial acne: • Comedones 6 to 200; • Inflammatory lesions 10 to 75 (papules and pustules, less than or equal to 5 nodules); • Females tested negative for pregnancy and were non-lactating; • Females maintained appropriate birth control; • Patients signed an Informed Consent Form; • No Accutane treatment for 6 months prior to baseline. Exclusion Criteria: • Use of hormonal contraception 6 months prior to baseline or during study; • Use of topical acne treatments within 6 weeks of baseline or during study; • Use of systemic antibiotics within 6 weeks of baseline or during study; • Use of investigational drugs within 90 days of baseline; • Use of any acne treatments during study. […]
# [1] = cited from earlier work
# [2] = Plasma antibiotic threshold levels based on steady-state pharmacokinetics
# [3] = system: neutrophil chemotaxis induced by bacterial chemotactic factors; settings: oral, total daily dose 1000 mg; cited from earlier work
# acne = settings: sub-antibiotic doses; cited from earlier work
compound,measurement,setting,value
CCO.C[C@H]1c2cccc(O)c2C(O)=C2C(=O)[C@]3(O)C(O)=C(C(N)=O)C(=O)[C@@H](N(C)C)[C@@H]3[C@@H](O)[C@@H]21.C[C@H]1c2cccc(O)c2C(O)=C2C(=O)[C@]3(O)C(O)=C(C(N)=O)C(=O)[C@@H](N(C)C)[C@@H]3[C@@H](O)[C@@H]21.Cl.Cl.O [doxycycline hyclate],reduction in the number of comedones (in words),moderate facial acne,significant reduction
CN(C)c1ccc(O)c2c1C[C@H]1C[C@H]3[C@H](N(C)C)C(O)=C(C(N)=O)C(=O)[C@@]3(O)C(O)=C1C2=O [minocycline HCl],minocycline serum levels (range),"[1]; single dose of two 100 mg tablets, adult humans, over a period of an hour",0.74 to 4.45 µg/mL
same,minocycline serum level (average),"[1]; single dose of two 100 mg tablets, adult humans",2.24 µg/mL
CN(C)[C@@H]1C(O)=C(C(N)=O)C(=O)[C@@]2(O)C(O)=C3C(=O)c4c(O)cccc4[C@@](C)(O)[C@H]3C[C@@H]12 [tetracycline HCl],peak plasma concentration,[1]; 250 mg every six hours over a twenty-four hour period,approximately 3 μg/ml
same,serum concentration level,[1]; 500 mg every six hours over a twenty-four hour period,4000 to 5000 ng/mL
CN(C)[C@@H]1C(O)=C(C(N)=O)C(=O)[C@@]2(O)C(O)=C3C(=O)c4c(O)cccc4[C@@](C)(O)[C@H]3C[C@@H]12 [tetracycline],plasma antibiotic threshold level,[2],0.5 µg/mL
same,neutrophil chemotaxis,[3],inhibition
same,clinical effect on acne,acne,no clinical effect
